Assay results reported in ChEMBL document CHEMBL5724914, “Linking interpersonal differences in gut microbiota composition and drug biotransformation activity” (2024).

What was measured:
[1] = (§1) The drug is tested on Z-016 corresponding to mouse gut metagenome with ENA study accession number: PRJEB37062 and ENA sample accession number: ERS12561815 for biotransformation under anaerobic condition. The drug concentrations were measured over 9 timepoints collected between 0 and 24 hours of incubation by liquid-chromatography-coupled mass spectrometry (LC–MS); details: 2 µM
[2] = human gut metagenome, 24 h, 2 µM
[3] = as §1, with “Z-010” for “Z-016”, “to” for “to mouse gut”, “ERS12561810” for “ERS12561815”; details: 2 µM
[4] = human gut metagenome, 24 h, 2 µM; remark: listed apart in the source
[5] = human gut metagenome, 24 h, 2 µM; remark: listed apart in the source
[6] = as §1, with “Z-005” for “Z-016”, “to” for “to mouse gut”, “ERS12561805” for “ERS12561815”; details: 2 µM
[7] = as §1, with “Z-017” for “Z-016”, “ERS12561816” for “ERS12561815”; details: 2 µM
[8] = as §1, with “Z-011” for “Z-016”, “ERS12561811” for “ERS12561815”; details: 2 µM
[9] = human gut metagenome, 24 h, 2 µM; remark: listed apart in the source
[10] = human gut metagenome, 24 h, 2 µM; remark: listed apart in the source
[11] = as §1, with “Z-024” for “Z-016”, “pig” for “mouse”, “ERS12561823” for “ERS12561815”; details: 2 µM
[12] = as §1, with “Z-025” for “Z-016”, “rabbit” for “mouse”, “ERS12561824” for “ERS12561815”; details: 2 µM
[13] = human gut metagenome, 24 h, 2 µM; remark: listed apart in the source
[14] = as §1, with “Z-028” for “Z-016”, “ERS12561827” for “ERS12561815”; details: 2 µM
[15] = human gut metagenome, 24 h, 2 µM; remark: listed apart in the source
[16] = human gut metagenome, 24 h, 2 µM; remark: listed apart in the source
[17] = as §1, with “WLS-086” for “Z-016”, “human” for “mouse”, “ERS12561752” for “ERS12561815”; details: 2 µM
[18] = as §1, with “Z-026” for “Z-016”, “to” for “to mouse gut”, “ERS12561825” for “ERS12561815”; details: 2 µM
[19] = human gut metagenome, 24 h, 2 µM; remark: listed apart in the source
[20] = as §1, with “Z-012” for “Z-016”, “to” for “to mouse gut”, “ERS12561812” for “ERS12561815”; details: 2 µM

Measured: Bacterial Biotransformation
Further: call rule not given here.

CN1CCC(=C2c3ccccc3CC(=O)c3sccc32)CC1.O=C(O)/C=C/C(=O)O [KETOTIFEN FUMARATE]
Compound metabolized: [4] | [5] | [10] | [16] | [17] | [19]
Compound NOT metabolized: [1] | [2] | [3] | [6] | [7] | [8] | [9] | [11] | [12] | [13] | [14] | [15] | [18] | [20]

CN(C)CCC=C1c2ccccc2COc2ccccc21 [DOXEPIN]
Compound NOT metabolized: [1] | [2] | [3] | [6] | [7] | [8] | [9] | [12] | [14] | [15] | [16] | [17] | [18] | [19] | [20]
Compound metabolized: [4] | [5] | [10] | [11] | [13]

CC(C)c1c(CN(C)C(C)Cc2ccccc2)n(C)n(-c2ccccc2)c1=O (centres undefined) [FAMPROFAZONE]
Compound metabolized: [1] | [2] | [3] | [4] | [5] | [6] | [8] | [9] | [10] | [11] | [13] | [15] | [16] | [17] | [19] | [20]
Compound NOT metabolized: [7] | [12] | [14] | [18]

O=C(O)c1cc(/N=N/c2ccc(S(=O)(=O)Nc3ccccn3)cc2)ccc1O [SULFASALAZINE]
Compound metabolized: [1] | [2] | [3] | [4] | [5] | [6] | [7] | [8] | [9] | [10] | [11] | [12] | [13] | [14] | [15] | [16] | [17] | [18] | [19] | [20]

COc1ccnc(C[S+]([O-])c2nc3ccc(OC(F)F)cc3[nH]2)c1OC (centres undefined) [PANTOPRAZOLE]
Compound metabolized: [1] | [2] | [3] | [4] | [5] | [7] | [8] | [9] | [10] | [11] | [12] | [13] | [14] | [15] | [16] | [17] | [18] | [19] | [20]
Compound NOT metabolized: [6]

CC[C@H](C)C(=O)O[C@H]1CCC=C2C=C[C@H](C)[C@H](CC[C@@H]3C[C@@H](O)CC(=O)O3)[C@H]21 [MEVASTATIN]
Compound metabolized: [4] | [5] | [7] | [12] | [13] | [14] | [15] | [16] | [17] | [18] | [19]
Compound NOT metabolized: [1] | [2] | [3] | [6] | [8] | [9] | [10] | [11] | [20]

CC1=C(CC(=O)O)c2cc(F)ccc2/C1=C\c1ccc([S+](C)[O-])cc1 (centres undefined)
Compound NOT metabolized: [1] | [2] | [3] | [6] | [7] | [8] | [12] | [14] | [20]
Compound metabolized: [5] | [9] | [10] | [11] | [13] | [15] | [16] | [17] | [18] | [19]

CN1[C@@H]2CC[C@H]1C[C@@H](OC(=O)c1c[nH]c3ccccc13)C2 [TROPISETRON]
Compound NOT metabolized: [1] | [2] | [3] | [4] | [5] | [6] | [7] | [8] | [9] | [10] | [11] | [12] | [13] | [14] | [15] | [16] | [18] | [19] | [20]
Compound metabolized: [17]
